In ChEMBL document CHEMBL4673229, “Pancreatic Lipase Inhibitory Cyclohexapeptides from the Marine Sponge-Derived Fungus Aspergillus sp. 151304” (J Nat Prod, 2020) one finds IC50 and Ki data, which are given here for three compounds.

Structures are written as SMILES. Positions of bridges follow the written chain, without caps; N, C: chain ends. Non-standard residues stand in square brackets, D forms with d. Residues, ends and D or L forms follow the SMILES beside them. *: point of attachment. NMeY = CN[C@@H](Cc1ccc(O)cc1)C(=O)O; Propionyl = CCC(=O)*

Usually IC50 stands for the concentration at which inhibition is half-maximal. As usually defined, the Ki is the equilibrium dissociation constant of an inhibitor or competing ligand from its target.

One test concerns HeLa. The experiment in a line: Cytotoxicity against human HeLa cells assessed as reduction in cell viability incubated for 72 hrs by CCK8 assay. The format is cell-based. For orientation: Tetrazolium assays rely on reduction of a dye to a coloured formazan, in cell work by metabolically active cells.
Another test deals with MCF7. The test is described as follows: Cytotoxicity against human MCF7 cells assessed as reduction in cell viability incubated for 72 hrs by CCK8 assay. Conditions: MCF7, 72 h. The format is cell-based.
The nature of test [1]: Inhibition of porcine pancrease lipase type 2 assessed as decrease in 4-MU formation using 4-MUO as substrate preincubated for 3 mins followed by substrate addition and measured for 40 mins by fluorescence assay. The arrangement: species or system Sus scrofa domesticus, Pancreas.
Test [2] is described as follows: Non-competitive inhibition of porcine pancrease lipase type 2 assessed as decrease in 4-MU formation using 4-MUO as substrate preincubated for 3 mins followed by substrate addition and measured for 40 mins by Lineweaver-Burk plot analysis. Details: species or system Sus scrofa domesticus, Pancreas.
The subject of another test is HepG2. The test is described as follows: Cytotoxicity against human HepG2 cells assessed as reduction in cell viability incubated for 72 hrs by CCK8 assay. The test is classed as cell-based. Conditions: HepG2, 72 h.
In a further test the test system is PC-9. The experiment in a line: Cytotoxicity against human PC-9 cells assessed as reduction in cell viability incubated for 72 hrs by CCK8 assay. Conditions: PC-9, 72 h. The test is classed as cell-based.

Take `CC(=O)N[C@@H]1C(=O)N[C@@H](C(C)C)C(=O)N2CCC[C@H]2C(=O)N[C@H](C(C)C)C(=O)N[C@@H](Cc2ccc(O)cc2)C(=O)N[C@@H](Cc2ccc(O)cc2)C(=O)O[C@@H]1C`: the IC50 in the test on HeLa was above 20 µM; in the test with MCF7, above 20 µM; in test [1], 0.5 µM; in the test with HepG2 it was above 20 µM; in the test with PC-9, above 20 µM. The Ki in test [2] was determined as 2 µM.
Consider `CC(=O)N[C@@H]1C(=O)N[C@@H](C(C)C)C(=O)N2CCC[C@H]2C(=O)N[C@@H](C(C)C)C(=O)N(C)[C@@H](Cc2ccc(O)cc2)C(=O)N[C@@H](Cc2ccc(O)cc2)C(=O)O[C@@H]1C` (Ac-TVPV[NMeY]Y; ester 1-C), for which the IC50 in the test on HeLa was above 20 µM; in the test on MCF7, above 20 µM; in test [1], 7.6 µM; in the test with HepG2 it was above 20 µM; with PC-9, above 20 µM.
Take `CCC(=O)N[C@@H]1C(=O)N[C@@H](C(C)C)C(=O)N2CCC[C@H]2C(=O)N[C@@H](C(C)C)C(=O)N(C)[C@@H](Cc2ccc(O)cc2)C(=O)N[C@@H](Cc2ccc(O)cc2)C(=O)O[C@@H]1C` (Propionyl-TVPV[NMeY]Y; ester 1-C): the concentration for half-maximal inhibition (IC50) was above 20 µM in the test with HeLa; above 20 µM in the test on MCF7; 1.8 µM in test [1]; above 20 µM with HepG2; above 20 µM in the test with PC-9.
